Reference: ChEMBL document CHEMBL1127438, “Substituted (S)-phenylpiperidines and rigid congeners as preferential dopamine autoreceptor antagonists: synthesis and structure-activity relationships” (J Med Chem, 1994)
pKi: −log10 of the molar value.

Columns and labels:
D(3) dopamine receptor [1] = target: T1, D(3) dopamine receptor (Homo sapiens, UniProt P35462); test: Tested for in vitro binding affinity against cloned mammalian dopamine autoreceptor (DA) receptors expressed in CHO-K1 cells [3H]-spiperone as radioligand; type: cell-based
T1 sequence (P35462 whole entry): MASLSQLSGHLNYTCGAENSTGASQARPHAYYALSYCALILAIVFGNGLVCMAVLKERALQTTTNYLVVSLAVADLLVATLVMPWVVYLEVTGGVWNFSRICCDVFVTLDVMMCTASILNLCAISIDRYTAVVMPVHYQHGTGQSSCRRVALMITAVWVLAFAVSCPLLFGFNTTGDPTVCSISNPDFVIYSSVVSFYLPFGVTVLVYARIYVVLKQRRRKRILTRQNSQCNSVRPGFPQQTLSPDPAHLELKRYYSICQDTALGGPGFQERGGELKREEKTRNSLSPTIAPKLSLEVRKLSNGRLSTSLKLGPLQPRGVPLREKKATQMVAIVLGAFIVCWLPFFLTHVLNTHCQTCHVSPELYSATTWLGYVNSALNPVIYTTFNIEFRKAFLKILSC

D(2) dopamine receptor [2] = target: T2, D(2) dopamine receptor (Rattus norvegicus, UniProt P61169); test: Tested for affinity against striatal dopamine autoreceptor (DA) D2 receptors using [3H]spiperone as radioligand in rats.
T2 sequence (P61169 whole entry): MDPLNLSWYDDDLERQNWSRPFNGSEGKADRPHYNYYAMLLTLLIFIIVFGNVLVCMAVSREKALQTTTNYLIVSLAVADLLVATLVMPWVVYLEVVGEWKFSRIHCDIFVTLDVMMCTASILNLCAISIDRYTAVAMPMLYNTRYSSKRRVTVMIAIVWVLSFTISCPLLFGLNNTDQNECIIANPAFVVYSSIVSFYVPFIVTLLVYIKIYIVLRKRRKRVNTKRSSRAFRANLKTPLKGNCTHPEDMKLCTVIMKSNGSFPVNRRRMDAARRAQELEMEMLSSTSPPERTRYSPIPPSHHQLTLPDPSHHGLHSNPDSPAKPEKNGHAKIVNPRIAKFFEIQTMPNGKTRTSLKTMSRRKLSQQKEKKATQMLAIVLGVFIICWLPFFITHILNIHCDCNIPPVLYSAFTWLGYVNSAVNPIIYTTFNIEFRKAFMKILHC

Dopamine receptor = test: Tested for in vitro binding affinity against cloned mammalian dopamine autoreceptor (DA) receptors expressed in CHO-K1 cells using [3H]U-86170 as radioligand; type: cell-based
D(2) dopamine receptor [3] = target: T3, D(2) dopamine receptor (Homo sapiens, UniProt P14416); test: biochemical
T3 sequence (P14416 whole entry): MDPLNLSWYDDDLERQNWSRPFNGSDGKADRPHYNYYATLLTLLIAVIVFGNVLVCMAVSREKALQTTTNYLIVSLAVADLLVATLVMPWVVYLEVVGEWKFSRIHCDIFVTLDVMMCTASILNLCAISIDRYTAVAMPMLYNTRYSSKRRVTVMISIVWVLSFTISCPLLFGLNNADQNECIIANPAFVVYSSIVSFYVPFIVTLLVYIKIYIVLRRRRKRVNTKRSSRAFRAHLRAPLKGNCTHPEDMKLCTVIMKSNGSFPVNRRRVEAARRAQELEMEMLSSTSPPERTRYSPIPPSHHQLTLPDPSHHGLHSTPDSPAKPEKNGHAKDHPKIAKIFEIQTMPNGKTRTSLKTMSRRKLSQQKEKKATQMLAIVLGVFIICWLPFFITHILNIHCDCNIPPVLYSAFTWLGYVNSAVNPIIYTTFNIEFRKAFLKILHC
Description: Affinity against recombinant dopamine receptor (DA) D2 expressed in CHO-K1 cells, using [3H]-spiperone as radioligand

Rattus norvegicus [4] = test: Evaluated for DOPAC level in nonpretreated habituated rats after subcuteneous dose of 100 micro mol/kg in rat striatum; type: functional
Rattus norvegicus [5] = test: Evaluated biochemically in nonpretreated habituated rats for (100 uM/kg) subcuteneous dose, Value expressed as locomotor activity (LMA); type: functional
D(2) dopamine receptor [6] = target: T3, D(2) dopamine receptor; test: biochemical; remark: listed apart in the source
Description: In vitro binding affinity against cloned mammalian dopamine D2 autoreceptor, expressed in CHO-K1 cells, using [3H]U-86170 as radioligand

D(3) dopamine receptor [7] = target: T1, D(3) dopamine receptor; test: Tested for in vitro binding affinity against cloned mammalian dopamine D3 receptor, expressed in CHO-K1 cells, using [3H]spiperone as radioligand; type: cell-based
D(2) dopamine receptor [8] = target: T2, D(2) dopamine receptor
Description: Affinity against striatal dopamine D2 receptors using [3H]spiperone as radioligand in rats.

Rattus norvegicus [9] = test: Evaluated for biochemical levels of DOPAC in nonpretreated habituated rats for subcuteneous dose of 100 micro mol/kg in rat striatum; type: functional
Rattus norvegicus [10] = test: Evaluated for DOPA accumulation in nonhabituated rats at 100 umol/kg of subcuteneous dose in rat striatum; type: functional
Rattus norvegicus [11] = test: Evaluated biochemically in reserpine-pretreated habituated rats for (100 umol/kg) subcuteneous dose in rat striatum (DOPAacc), Value expressed as counts/30 min; type: functional
Rattus norvegicus [12] = test: Evaluated for locomotor activity in nonpretreated habituated rats in 100 umol/kg of subcuteneous dose; type: functional; set-up: unit not given here
Rattus norvegicus [13] = test: Tested in vivo for its ability to displace DA receptor agonist (Di-Pr-5,6-ADTN) from rat striatal binding sites at 0.25 uM/Kg sc. dose (after subtraction of cerebellum levels); type: functional
Rattus norvegicus [14] = test: Evaluated biochemically in nonhabituated rats for (100 umol/kg) subcuteneous dose, Value expressed as locomotor activity (LMA); type: functional
Rattus norvegicus [15] = test: Evaluated for DOPA accumulation (DOPAacc) level in nonhabituated rats after subcuteneous dose (100 uM/kg) in rat striatum; type: functional
Rattus norvegicus [16] = organism: Rattus norvegicus; test: Tested in vio for concomitant ability to antagonize the locomotor activity of rat induced by Di-Pr-5,6-ADTN, Value expressed as locomotor activity (LMA), % of control; type: functional; set-up: scale not given: the % may be the effect or the level left
Rattus norvegicus [17] = test: Evaluated biochemically in reserpine-pretreated habituated rats for (100 umol/kg) subcuteneous dose, Value expressed as locomotor activity (LMA); type: functional
Rattus norvegicus [18] = test: Effect of (60 min after administration of 200 (uM/kg) subcuteneous dose on DA release in brain dialysis model of rat striatum; Values expressed as percent of saline controls; type: functional
Rattus norvegicus [19] = test: Effect (60 min after administration of 200 (micro mol/kg) subcuteneous dose on DA release in brain dialysis model of rat; type: functional
Rattus norvegicus [20] = test: Compound is evaluated biochemically in nonhabituated rats for (100 umol/kg) subcuteneous dose, Value expressed as locomotor activity (LMA); type: functional
Rattus norvegicus [21] = test: Compound is evaluated for DOPA accumulation in reserpine-pretreated habituated rats at 100 umol/kg of subcuteneous dose in rat striatum; type: functional
Rattus norvegicus [22] = test: Compound is evaluated for locomotor activity in nonhabituated rats at 100 umol/kg of subcuteneous dose; type: functional
Rattus norvegicus [23] = test: Effect (60 min after administration of 200 (micro mol/kg) subcuteneous dose on DA release in brain dialysis model of rat striatum; type: functional
Rattus norvegicus [24] = test: Evaluated for locomotor activity in nonpretreated habituated rats at 100 umol/kg of subcuteneous dose; type: functional; set-up: unit not given here
Rattus norvegicus [25] = test: Compound is evaluated for locomotor activity in reserpine-pretreated habituated rats at 100 umol/kg of subcuteneous dose; type: functional

pKi (D(2) dopamine receptor [3])	pKi (D(3) dopamine receptor [7])	pKi (D(2) dopamine receptor [8])	Structure (SMILES)	Activity (Rattus norvegicus [4]) [%]	Control (Rattus norvegicus [5]) [%]	pKi (D(2) dopamine receptor [6])	other results
			CCCN[C@@H]1CCc2c(OC)cccc2[C@@H]1C	346	354		
7.22	7.44	7.10	N#Cc1cccc([C@@H]2CCCN(CCCc3ccccc3)C2)c1	280	484	7.54	
< 6.66			CCCN1CCC[C@@H](c2ccccc2OS(=O)(=O)C(F)(F)F)C1				pKi (D(3) dopamine receptor [1]): 5.51; Activity (Rattus norvegicus [9]): 83%; Activity (Rattus norvegicus [10]): 102%; Ki (Dopamine receptor): 315 nM
< 6.66	< 5.89	< 4.82	CCCN1CCC[C@@H](c2cccc(C(N)=O)c2)C1	114	203	< 5.73	Activity (Rattus norvegicus [11]): 97%
< 6.66			C=CCN1CC[C@@H]2c3cccc(OS(=O)(=O)C(F)(F)F)c3CC[C@@H]21 (stereo in doubt; 49)				LMA (Rattus norvegicus [12]): 116; pKi (D(3) dopamine receptor [1]): 6.76; pKi (D(2) dopamine receptor [2]): < 6.76; Activity (Rattus norvegicus [9]): 108%; Ki (Dopamine receptor): 353 nM
< 6.66			CCCN1CCC2c3cccc(OS(=O)(=O)C(F)(F)F)c3CCC21 (configuration not stated)				LMA (Rattus norvegicus [12]): 687; pKi (D(3) dopamine receptor [1]): 7.21; pKi (D(2) dopamine receptor [2]): 7.09; Activity (Rattus norvegicus [9]): 223%; Ki (Dopamine receptor): 89 nM
			C=CCN1CC[C@H]2c3cccc(OC)c3CC[C@H]21	314	182		
< 6.66	< 5.89	5.66	CCCN1CCC[C@@H](c2cccc(C(=O)OC)c2)C1	140	297	< 5.73	
< 6.66			CCCN1CCC[C@@H](c2ccc(OS(=O)(=O)C(F)(F)F)c(OS(=O)(=O)C(F)(F)F)c2)C1				LMA (Rattus norvegicus [12]): 36; pKi (D(3) dopamine receptor [1]): 6.47; Activity (Rattus norvegicus [9]): 96%; Ki (Dopamine receptor): 1100 nM
< 6.66	6.29	5.91	CCCN1CCC[C@@H](c2cccc(CC#N)c2)C1	302	887	7.16	Locomotor activity (% of control) (Rattus norvegicus [14]): 147%; Activity (Rattus norvegicus [15]): 207%; Control (Rattus norvegicus [17]): 16%; Activity (Rattus norvegicus [11]): 57%
< 6.66			CCN1CCC[C@@H](c2cccc(OS(=O)(=O)C(F)(F)F)c2)C1				pKi (D(2) dopamine receptor [2]): 5.93; Activity (Rattus norvegicus [9]): 300%; Activity (Rattus norvegicus [10]): 286%; Activity (Rattus norvegicus [19]): 120%
< 6.66	5.84	6.39	CCCN1CCC[C@@H](c2cccc(CO)c2)C1	138	187	6.62	Activity (Rattus norvegicus [15]): 118%; Control (Rattus norvegicus [17]): 3%; Activity (Rattus norvegicus [11]): 50%; Activity (Rattus norvegicus [18]): 175%; Control (Rattus norvegicus [20]): 123%
			CCCN1CCCC2c3cccc(OS(=O)(=O)C(F)(F)F)c3CCC21 (stereo in doubt; 45)				LMA (Rattus norvegicus [12]): 266; pKi (D(3) dopamine receptor [1]): 6.23; pKi (D(2) dopamine receptor [2]): < 6.34; Activity (Rattus norvegicus [9]): 94%; Ki (Dopamine receptor): 744 nM
< 6.66	7.11	6.12	CCCN1CCC[C@@H](c2cccc(-c3ccsc3)c2)C1	88	229	6.87	Activity (Rattus norvegicus [18]): 106%
	6.77	5.47	CCCN1CCC[C@@H](c2cccc(S(=O)(=O)N(C)C)c2)C1	355	548		Activity (Rattus norvegicus [18]): 220%
< 6.66	< 5.82	< 6.76	C=CCN1CCC2c3cccc(C(N)=O)c3CCC21 (configuration not stated)			< 5.82	
< 6.66			CN1CCC[C@@H](c2cccc(OS(=O)(=O)C(F)(F)F)c2)C1				pKi (D(2) dopamine receptor [2]): 4.93
< 6.66	7.23	6.98	N#Cc1cccc([C@@H]2CCCN(CCc3ccccc3)C2)c1		510	7.66	Locomotor activity (% of control) (Rattus norvegicus [14]): 120%; Activity (Rattus norvegicus [15]): 176%
			CCCN1CCC[C@@H](c2cccc(O)c2)C1 [PRECLAMOL]	203	119		Locomotor activity (% of control) (Rattus norvegicus [14]): 40%; Activity (Rattus norvegicus [15]): 141; Control (Rattus norvegicus [17]): 12%; Activity (Rattus norvegicus [11]): 25%; Activity (Rattus norvegicus [18]): 190
< 6.66	5.88	5.20	CCCN1CCC[C@@H](c2cccc(S(C)(=O)=O)c2)C1	250	368	6.35	Control (Rattus norvegicus [13]): 45%; Locomotor activity (% of control) (Rattus norvegicus [14]): 135%; Activity (Rattus norvegicus [15]): 319%; Control (Rattus norvegicus [16]): 101%; Control (Rattus norvegicus [17]): 10%; Activity (Rattus norvegicus [11]): 95%; Activity (Rattus norvegicus [18]): 293%
< 6.66	< 5.70		CCCN1CCC[C@@H](c2cccc(NS(=O)(=O)C(F)(F)F)c2)C1	91	305		
< 6.66			CCCN1CCC[C@@H](c2ccc(OS(=O)(=O)C(F)(F)F)cc2)C1				pKi (D(3) dopamine receptor [1]): 5.94; pKi (D(2) dopamine receptor [2]): 4.93; Activity (Rattus norvegicus [9]): 85%; Activity (Rattus norvegicus [10]): 495%; Ki (Dopamine receptor): 1736 nM

Structure (SMILES)	pKi (D(2) dopamine receptor [3])	pKi (D(3) dopamine receptor [7])	pKi (D(2) dopamine receptor [8])	Activity (Rattus norvegicus [4]) [%]	Control (Rattus norvegicus [5]) [%]	pKi (D(2) dopamine receptor [6])	other results
CCCN1CCC[C@@H](c2cccc(C)c2)C1	< 6.66						pKi (D(3) dopamine receptor [1]): 6.24; pKi (D(2) dopamine receptor [2]): 6.03; Ki (Dopamine receptor): 430 nM
C=CCN1CCC[C@@H](c2cccc(C#N)c2)C1	< 6.66	6.18	5.72			6.60	Control (Rattus norvegicus [13]): 59%; Locomotor activity (% of control) (Rattus norvegicus [14]): 143%; Activity (Rattus norvegicus [15]): 257%; Control (Rattus norvegicus [16]): 46%; Control (Rattus norvegicus [17]): 3%; Activity (Rattus norvegicus [11]): 85%; Activity (Rattus norvegicus [18]): 522%
C#CCN1CCC[C@@H](c2cccc(C#N)c2)C1	< 6.66	< 5.87	< 4.82	146	297	5.93	
CCC(C)N1CCC[C@@H](c2cccc(C#N)c2)C1 (some centres not stated)	7.01	6.98	5.98	267	346	6.73	Control (Rattus norvegicus [13]): 59%; Control (Rattus norvegicus [16]): 56%; Activity (Rattus norvegicus [18]): 256%
C=CCN1CCC2c3cccc(C#N)c3CCC21 (configuration not stated)		< 6.34	< 6.76	172	292	6.01	
CN1CCC[C@@H](c2cccc(C#N)c2)C1	< 6.66	5.75	5.08	174		5.98	Locomotor activity (% of control) (Rattus norvegicus [14]): 79%; Activity (Rattus norvegicus [15]): 215%
CCN1CCC[C@@H](c2cccc(C#N)c2)C1	< 6.66	6.29	5.63	264	351	6.63	Locomotor activity (% of control) (Rattus norvegicus [14]): 113%; Activity (Rattus norvegicus [15]): 318%; Activity (Rattus norvegicus [18]): 212%
CCCN1CCC[C@@H](c2cccc(Br)c2)C1	6.77						Activity (Rattus norvegicus [21]): 101%; pKi (D(3) dopamine receptor [1]): 6.77; LMA (Rattus norvegicus [22]): 140; pKi (D(2) dopamine receptor [2]): 6.27; Activity (Rattus norvegicus [9]): 145%; Activity (Rattus norvegicus [10]): 199%; Activity (Rattus norvegicus [23]): 363%; LMA (Rattus norvegicus [24]): 470; Ki (Dopamine receptor): 106 nM; LMA (Rattus norvegicus [25]): 15
N#Cc1cccc([C@@H]2CCCNC2)c1	< 6.66	6.20		167	575	6.50	Locomotor activity (% of control) (Rattus norvegicus [14]): 193%; Activity (Rattus norvegicus [15]): 271%
CC(C)N1CCC[C@@H](c2cccc(C#N)c2)C1	< 6.66	6.57	6.14		366	6.97	Locomotor activity (% of control) (Rattus norvegicus [14]): 102%; Activity (Rattus norvegicus [15]): 301%
CCCCN1CCC[C@@H](c2cccc(C#N)c2)C1	< 6.66		6.21	257	1382		Control (Rattus norvegicus [17]): 12%; Activity (Rattus norvegicus [11]): 71%
N#Cc1cccc([C@@H]2CCCN(CC3CC3)C2)c1	< 6.66	6.28				6.28	Locomotor activity (% of control) (Rattus norvegicus [14]): 191%
